# Assay results published in ChEMBL document CHEMBL1201862, “PubChem BioAssay data set” (2004).
#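 Compound exposure: 48 hours, 5 concentrations, 96-well plates. Here, GI50 denotes the concentration required for 50% inhibition of growth.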 The source made the active and inactive calls. Rule as the data show it: active = GI50 up to about 1.1 µM and inactive = higher.
# Key:
# Assay in all cases: growth of human tumour cells (NCI), 48 h
# [1] = tested on: XF498
# [2] = tested on: A549
# [3] = tested on: OVCAR-3
# [4] = tested on: RXF 393
# [5] = tested on: TK-10
# [6] = tested on: UACC-257
# [7] = tested on: U-251
# [8] = tested on: K562
# [9] = tested on: M19-MEL
# [10] = tested on: SF-268
# [11] = tested on: HCT-15
# [12] = tested on: OVCAR-8
# [13] = tested on: OVCAR-4
# [14] = tested on: EKVX
# [15] = tested on: SN12C
# [16] = tested on: SK-MEL-28
# [17] = tested on: UACC-62
# [18] = tested on: SF-295
# [19] = tested on: HOP-92
# [20] = tested on: SK-MEL-5
# [21] = tested on: HOP-18
# [22] = tested on: SW-620
# [23] = tested on: CCRF-CEM
# [24] = tested on: HCC 2998
# [25] = tested on: ACHN
# [26] = tested on: 786-0
# [27] = tested on: SNB-19
# [28] = tested on: HL-60
# [29] = tested on: SF-539
# [30] = tested on: NCI-H23
# [31] = tested on: IGROV-1
# [32] = tested on: OVCAR-5
# [33] = tested on: DMS-273
# [34] = tested on: A498
# [35] = tested on: CAKI-1
# [36] = tested on: KM-20L2
# [37] = tested on: SK-MEL-2
# [38] = tested on: Malme-3M
# [39] = tested on: SK-OV-3
# [40] = tested on: RPMI-8226
# [41] = tested on: MOLT-4
# [42] = tested on: HT-29
# [43] = tested on: M14
# [44] = tested on: SNB-75
# [45] = tested on: DMS-114
# [46] = tested on: NCI-H460
# [47] = tested on: HCT-116
# [48] = tested on: UO-31
# [49] = tested on: DLD-1
# [50] = tested on: HOP-62
# [51] = tested on: NCI-H522
# [52] = tested on: LOX IMVI
# [53] = tested on: KM12
# [54] = tested on: LXFL 529
# [55] = tested on: COLO 205
# [56] = tested on: SNB-78
# [57] = tested on: NCI-H226
# [58] = tested on: SR
smiles,measurement,setting,value
Clc1cccc(C2N3CCCCC3[C@@H]3c4[nH]c5ccccc5c4CCN23)c1 (stereo partly specified),GI50,[1],20.9 µM (inactive)
same,GI50,[2],43.9 µM (inactive)
same,GI50,[3],34.8 µM (inactive)
same,GI50,[4],27 µM (inactive)
same,GI50,[5],40.8 µM (inactive)
same,GI50,[6],30.5 µM (inactive)
same,GI50,[7],29.2 µM (inactive)
same,GI50,[8],23.1 µM (inactive)
same,GI50,[9],20.1 µM (inactive)
same,GI50,[10],33.1 µM (inactive)
same,GI50,[11],48.2 µM
same,GI50,[12],41.4 µM (inactive)
same,GI50,[13],33.5 µM (inactive)
same,GI50,[14],56 µM (inactive)
same,GI50,[15],13.6 µM (inactive)
same,GI50,[16],22.8 µM (inactive)
same,GI50,[17],15.6 µM (inactive)
same,GI50,[18],51.1 µM (inactive)
same,GI50,[19],62.5 µM (inactive)
same,GI50,[20],18 µM (inactive)
same,GI50,[21],> 100 µM (inactive)
same,GI50,[22],44.4 µM (inactive)
same,GI50,[23],19.4 µM (inactive)
same,GI50,[24],31.9 µM (inactive)
same,GI50,[25],24.2 µM (inactive)
same,GI50,[26],32.6 µM (inactive)
same,GI50,[27],55 µM (inactive)
same,GI50,[28],18.7 µM (inactive)
same,GI50,[29],21.1 µM (inactive)
same,GI50,[30],22 µM (inactive)
same,GI50,[31],50.8 µM (inactive)
same,GI50,[32],21 µM (inactive)
same,GI50,[33],30.1 µM (inactive)
same,GI50,[34],31.2 µM (inactive)
same,GI50,[35],45 µM (inactive)
same,GI50,[36],56.8 µM (inactive)
same,GI50,[37],19.8 µM (inactive)
same,GI50,[38],18.3 µM (inactive)
same,GI50,[39],46.9 µM (inactive)
same,GI50,[40],29 µM (inactive)
same,GI50,[41],23.1 µM (inactive)
same,GI50,[42],18.2 µM (inactive)
same,GI50,[43],27.9 µM (inactive)
same,GI50,[44],32.8 µM (inactive)
same,GI50,[45],20.6 µM (inactive)
same,GI50,[46],22.7 µM (inactive)
same,GI50,[47],17.1 µM (inactive)
same,GI50,[48],24.9 µM (inactive)
same,GI50,[49],30.3 µM (inactive)
same,GI50,[50],46.9 µM (inactive)
CCO/N=C(/N)c1ncn(Cc2ccccc2)c1NCC(OCC)OCC,GI50,[1],29.7 µM (inactive)
same,GI50,[2],> 100 µM (inactive)
same,GI50,[3],> 100 µM (inactive)
same,GI50,[4],29.2 µM (inactive)
same,GI50,[5],> 100 µM (inactive)
same,GI50,[6],> 100 µM (inactive)
same,GI50,[7],> 100 µM (inactive)
same,GI50,[51],> 100 µM (inactive)
same,GI50,[8],> 100 µM (inactive)
same,GI50,[9],> 100 µM (inactive)
same,GI50,[10],> 100 µM (inactive)
same,GI50,[11],> 100 µM
same,GI50,[12],> 100 µM (inactive)
same,GI50,[52],> 100 µM (inactive)
same,GI50,[14],> 100 µM (inactive)
same,GI50,[15],> 100 µM (inactive)
same,GI50,[17],> 100 µM (inactive)
same,GI50,[18],> 100 µM (inactive)
same,GI50,[20],> 100 µM (inactive)
same,GI50,[22],> 100 µM (inactive)
same,GI50,[23],> 100 µM (inactive)
same,GI50,[24],> 100 µM (inactive)
same,GI50,[25],> 100 µM (inactive)
same,GI50,[26],> 100 µM (inactive)
same,GI50,[27],> 100 µM (inactive)
same,GI50,[53],> 100 µM (inactive)
same,GI50,[29],> 100 µM (inactive)
same,GI50,[54],> 100 µM (inactive)
same,GI50,[31],> 100 µM (inactive)
same,GI50,[55],> 100 µM (inactive)
same,GI50,[32],> 100 µM (inactive)
same,GI50,[33],> 100 µM (inactive)
same,GI50,[34],> 100 µM (inactive)
same,GI50,[35],> 100 µM (inactive)
same,GI50,[36],> 100 µM (inactive)
same,GI50,[37],> 100 µM (inactive)
same,GI50,[38],> 100 µM (inactive)
same,GI50,[39],> 100 µM (inactive)
same,GI50,[40],> 100 µM (inactive)
same,GI50,[41],> 100 µM (inactive)
same,GI50,[42],> 100 µM (inactive)
same,GI50,[43],> 100 µM (inactive)
same,GI50,[44],> 100 µM (inactive)
same,GI50,[56],> 100 µM (inactive)
same,GI50,[45],> 100 µM (inactive)
same,GI50,[46],> 100 µM (inactive)
same,GI50,[47],> 100 µM (inactive)
same,GI50,[48],> 100 µM (inactive)
same,GI50,[49],> 100 µM (inactive)
same,GI50,[50],> 100 µM (inactive)
same,GI50,[57],> 100 µM (inactive)
COC(=O)C1[C@H](c2ccc3c(c2)OCO3)OC(=O)[C@]1(C(=O)OC)C(=O)c1ccc(OC)c(OC)c1 (stereo partly specified),GI50,[1],81.8 µM (inactive)
same,GI50,[3],75.5 µM (inactive)
same,GI50,[5],> 100 µM (inactive)
same,GI50,[6],40.2 µM (inactive)
same,GI50,[7],44.9 µM (inactive)
same,GI50,[8],36 µM (inactive)
same,GI50,[9],51.6 µM (inactive)
same,GI50,[11],33.7 µM
same,GI50,[12],42.1 µM (inactive)
same,GI50,[13],> 100 µM (inactive)
same,GI50,[52],18.8 µM (inactive)
same,GI50,[14],> 100 µM (inactive)
same,GI50,[15],48.9 µM (inactive)
same,GI50,[17],59.7 µM (inactive)
same,GI50,[18],> 100 µM (inactive)
same,GI50,[19],44.4 µM (inactive)
same,GI50,[20],56.2 µM (inactive)
same,GI50,[21],> 100 µM (inactive)
same,GI50,[22],39.3 µM (inactive)
same,GI50,[23],43.3 µM (inactive)
same,GI50,[24],34.7 µM (inactive)
same,GI50,[25],60.3 µM (inactive)
same,GI50,[26],> 100 µM (inactive)
same,GI50,[28],25.2 µM (inactive)
same,GI50,[53],41.3 µM (inactive)
same,GI50,[29],> 10 µM (inactive)
same,GI50,[30],29.3 µM (inactive)
same,GI50,[54],41.5 µM (inactive)
same,GI50,[31],42.3 µM (inactive)
same,GI50,[55],42.7 µM (inactive)
same,GI50,[58],34.2 µM (inactive)
same,GI50,[32],56.8 µM (inactive)
same,GI50,[33],25.1 µM (inactive)
same,GI50,[34],> 100 µM (inactive)
same,GI50,[35],> 100 µM (inactive)
same,GI50,[36],56 µM (inactive)
same,GI50,[37],23.4 µM (inactive)
same,GI50,[38],84.9 µM (inactive)
same,GI50,[39],> 100 µM (inactive)
same,GI50,[40],46.2 µM (inactive)
same,GI50,[41],20.5 µM (inactive)
same,GI50,[42],28.1 µM (inactive)
same,GI50,[43],70.1 µM (inactive)
same,GI50,[44],90.4 µM (inactive)
same,GI50,[56],56.8 µM (inactive)
same,GI50,[46],38.7 µM (inactive)
same,GI50,[48],87.3 µM (inactive)
same,GI50,[49],17.4 µM (inactive)
same,GI50,[50],> 100 µM (inactive)
same,GI50,[57],> 100 µM (inactive)
